Test systems include DU-145 prostate; SN12C renal; SR leukemia; CAKI-1 renal; KM12 colon; HOP-92 NSCLC; NCI-H23 lung; COLO 205 colon; HCT-116 colon; T-47D breast; OVCAR-8 ovarian; HT29 colon; SF-295 CNS; MDA-MB-435; OVCAR-5 ovarian; MALME-3M melanoma; OVCAR-4 ovarian; HCC-2998 colon.
Holding throughout (test): inhibition of tumour cell growth, NCI panel, 48 h

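48-hour exposure; five concentrations; linearly interpolated endpoints. TGI is the concentration that stops growth completely.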

Consider `CCSC1=N/C(=C\c2ccco2)C(Cl)=N1`, for which the TGI in the test on DU-145 prostate, in the test with SN12C renal, in the test on SR leukemia, in the test on CAKI-1 renal, in the test on KM12 colon and in the test with HOP-92 NSCLC was greater than 100 µM throughout. The TGI in the test on NCI-H23 lung, with COLO 205 colon, with HCT-116 colon, in the test with T-47D breast, with OVCAR-8 ovarian and with HT29 colon was greater than 100 µM in each case. Besides, the TGI with SF-295 CNS, in the test with MDA-MB-435 and with OVCAR-5 ovarian was greater than 100 µM in each case.

As for `O=C(O)c1ccc2c(c1)CC1(C2)Cc2ccccc2C1=O` (stereo not given), the TGI in the test with DU-145 prostate, with SN12C renal, with SR leukemia, in the test on KM12 colon, with HOP-92 NSCLC and in the test with NCI-H23 lung was greater than 100 µM each time. For the same molecule, the TGI with MALME-3M melanoma, in the test on COLO 205 colon, in the test with OVCAR-4 ovarian, in the test with HCT-116 colon, in the test on T-47D breast and with OVCAR-8 ovarian was greater than 100 µM throughout. Besides, the TGI in the test on HT29 colon, in the test on HCC-2998 colon, in the test on SF-295 CNS, in the test on MDA-MB-435 and in the test on OVCAR-5 ovarian was greater than 100 µM throughout.

Turning to `c1ccc(Nc2nnc(Cn3ccc4ccccc43)s2)cc1`, the TGI is greater than 100 µM in the test on DU-145 prostate; greater than 100 µM in the test with SN12C renal; greater than 100 µM in the test on SR leukemia; 70.6 µM with CAKI-1 renal; greater than 100 µM in the test on KM12 colon; greater than 100 µM in the test on HOP-92 NSCLC. Further, the TGI in the test on NCI-H23 lung, in the test with COLO 205 colon, in the test with OVCAR-4 ovarian, with HCT-116 colon, in the test with T-47D breast and in the test with OVCAR-8 ovarian was greater than 100 µM each time. The TGI in the test with HT29 colon was greater than 100 µM; in the test on HCC-2998 colon it was greater than 100 µM; in the test with SF-295 CNS, 80.9 µM; in the test with MDA-MB-435 it was greater than 100 µM; in the test with OVCAR-5 ovarian it was greater than 100 µM.

Regarding `COc1ccc(C2=C(N)c3c(OC)cccc3C2=O)cc1`, the TGI in the test on DU-145 prostate, in the test on SN12C renal, with SR leukemia, with CAKI-1 renal, in the test on KM12 colon and in the test with NCI-H23 lung was greater than 100 µM each time. Besides, the TGI in the test with MALME-3M melanoma, with COLO 205 colon, with OVCAR-4 ovarian, with HCT-116 colon, in the test with T-47D breast and in the test on OVCAR-8 ovarian was greater than 100 µM each time. For the same molecule, the TGI in the test with HT29 colon, in the test on HCC-2998 colon, with SF-295 CNS, in the test on MDA-MB-435 and with OVCAR-5 ovarian was greater than 100 µM in each case.

For `C/C(=N/O)c1cccc(Nc2nc3ccc(Cl)cc3c3[nH]c4ccccc4c23)c1`, the TGI is 4.41 µM with DU-145 prostate; 9.53 µM in the test with SN12C renal; greater than 100 µM in the test with SR leukemia; 6.11 µM in the test on CAKI-1 renal; 3.79 µM in the test with KM12 colon; 4.24 µM in the test with NCI-H23 lung. Further, the TGI in the test with COLO 205 colon is 4.15 µM; with OVCAR-4 ovarian it was 4.82 µM; in the test with HCT-116 colon, 2.66 µM; in the test with T-47D breast it was 3.5 µM; with OVCAR-8 ovarian, 7.77 µM; in the test on HT29 colon, 5.36 µM. For the same molecule, the TGI is 4.32 µM in the test with SF-295 CNS, 3.99 µM in the test on MDA-MB-435 and 6.83 µM in the test on OVCAR-5 ovarian.

Take `N#Cc1sc2c(c1OC(=O)c1cccs1)c(=O)n(-c1ccccc1)c(=S)n2-c1ccccc1`: the TGI in the test on DU-145 prostate was greater than 100 µM; in the test on SN12C renal it was 47.2 µM; in the test on SR leukemia it was 71.4 µM; with CAKI-1 renal, greater than 100 µM; with KM12 colon, 43.6 µM; in the test on NCI-H23 lung, 93.5 µM. The TGI in the test with MALME-3M melanoma was 40.7 µM; in the test on COLO 205 colon, 42.5 µM; in the test with OVCAR-4 ovarian, 73.5 µM; with HCT-116 colon it was 34.2 µM; in the test on T-47D breast, 34.1 µM; in the test with OVCAR-8 ovarian it was 81.6 µM. Moreover, the values for the TGI in the test on HT29 colon, in the test on SF-295 CNS and in the test on MDA-MB-435 were greater than 100 µM, 55.8 µM and greater than 100 µM, respectively.

Take `NC(=O)C(c1ccccc1)N1OC2C(=O)N(c3cccc4ccccc34)C(=O)C2C1c1c2ccccc2c(Cl)c2ccccc12` (stereo not given): the TGI with DU-145 prostate turned out to be 46.6 µM; in the test with SN12C renal, 16.3 µM; in the test on SR leukemia, 3.8 µM; in the test on CAKI-1 renal, 22.7 µM; in the test with KM12 colon it was 7.75 µM; in the test on HOP-92 NSCLC, 32 µM. The TGI in the test on NCI-H23 lung amounted to 26 µM; in the test on MALME-3M melanoma, 35.7 µM; with COLO 205 colon, 14.9 µM; in the test on OVCAR-4 ovarian, 33.2 µM; with HCT-116 colon, 3.05 µM; in the test with T-47D breast it was 31.7 µM. Moreover, the TGI stood at 19.4 µM in the test with OVCAR-8 ovarian; 14.7 µM in the test on HT29 colon; 23.9 µM in the test on SF-295 CNS; 22.7 µM in the test on MDA-MB-435; 19.3 µM in the test with OVCAR-5 ovarian.

On to `O=c1oc2ccccc2nc1/C=C(\O)c1ccc([N+](=O)[O-])cc1`, for which the TGI with DU-145 prostate, in the test with SN12C renal, in the test with SR leukemia, in the test with CAKI-1 renal, with KM12 colon and with NCI-H23 lung was greater than 100 µM each time. Also, the TGI in the test on MALME-3M melanoma, in the test with COLO 205 colon, in the test with OVCAR-4 ovarian, in the test on HCT-116 colon, in the test with T-47D breast and with OVCAR-8 ovarian was greater than 100 µM throughout. In addition, the TGI with HT29 colon, in the test with HCC-2998 colon, in the test on SF-295 CNS, with MDA-MB-435 and in the test with OVCAR-5 ovarian was greater than 100 µM in each case.

The values are drawn from PubChem BioAssay (NCI).
